Test results taken from patent US7288258B2, “Polyepitopic protein fragments of the E6 and E7 proteins of HPV, their production and their use particularly in vaccination” (Peptide Immune Ligands, priority 1999, dated 2007).

Experiments:
Assay in all cases: association of peptide with HLA molecules and stability of the complex
Format in all cases: binding, human
Conditions in all cases: stable complex: peptide remains bound for at least about 3 hours at 37° C.
[1] = tested on: HLA molecules of the B18 type
Description: (§1) The different epitopes of the polyepitopic region of the predetermined protein, and delimiting the epitopic protein fragments, are preferably selected from the peptides; • binding to a predetermined molecule of MCH, particularly to a molecule of the predetermined HLA type, and this from concentrations of about 10^−6 M to about 10^−10 M in peptide for concentrations of about 10^−7 M of HLA molecules, particularly under the conditions described hereafter, • and forming a stable complex with said MCH molecule, namely particularly a complex in which said peptide remains bound to said molecule for at least about 3 hours at 37° C.
(§2) By way of illustration, the above-mentioned epitopes of the invention are selected from among the peptides adapted: • on the one hand of associating with the molecules of MCH, particularly by using the following method: • incubation (particularly for about 2 hours at 25° C., then about 15 hours at 4° C.) of the peptide in the presence of MCH molecules, from the lysis of human or animal cells, or purified particularly by affinity chromatography from human or animal cell lines, • trapping complexes formed during the preceding step on a solid support covered with a first antibody, particularly monoclonal, recognizing specifically the CMH molecules in their configuration dependent on their connection to said peptide, • addition to the preceding solid support of a second marked antibody, particularly by coupling to a radioactive, enzymatic or fluorescent marker, said marked antibody recognizing specifically either the long chains of MCH in their configuration dependent on their connection to the peptide, or the short chain of MCH or the β2-microglobulin binding specifically to the different long chains of the MCH in their above-mentioned configuration, • detection, after rinsing of the solid support, of the possible presence of the second marked antibody remaining fixed on the solid support, signifying an association effect between the molecules of MCH and the peptide studied, • and, on the other hand, forming a complex with said MCH molecules, whose stability can be evaluated by the use of a method of following according to time the connection established between the peptide and the MCH molecules, this method being preferably carried out according to a protocol identical to the preceding method, but in which the incubation step of the peptide in the presence of MCH molecules on the solid support covered with said first antibody, is preceded by a preliminary step of eliminating the free peptide adapted that may be present in the reaction medium, particularly by washing the solid support, said incubation step being carried out (preferably at a temperature of 37° C.) for variable times of 1 hours, 3 hours, 5 hours, 24 hours and 48 hours.
(§3) As mentioned above, the epitopes of the invention should be recognized by the T cells in association with the MCH molecules and associate with these latter, particularly in the framework of the practice of the recognition test described above. This association can be weak (detectable at concentrations of peptide analogs of the order of 10^−4 to 10^−5 M), intermediate (detectable at concentrations of peptide analogs of the order of 10^−6 to 10^−7 M), or strong (detectable at concentrations of peptide analogs of the order of 10^−8 to 10^−9 M). The peptides associated with the MCH molecules in the scope of the present invention are preferably adapted to bond during at least about 3 hours, to said MCH molecules.

[2] = tested on: HLA molecules of the B35 type
Description: as §1, §2, §3

[3] = tested on: HLA molecules of the B51 type
Description: as §1, §2, §3

[4] = tested on: HLA molecules of the B8 type
Description: as §1, §2, §3

[5] = tested on: HLA molecules of the A1 type
[6] = tested on: HLA molecules of the B62 type
Description: as §1, §2, §3

CPEEKQRHL (Human Papillomavirus)
binding stably to HLA molecules of the B18 type [1]: binding stably | binding stably to HLA molecules of the B35 type [2]: binding stably | binding stably to HLA molecules of the B51 type [3]: binding stably | binding stably to HLA molecules of the B8 type [4]: binding stably

QPETTDLYCY (Human Papillomavirus)
binding stably to HLA molecules of the A1 type [5]: binding stably | binding stably to HLA molecules of the B18 type [1]: binding stably

QAEPDRAHY (Human Papillomavirus)
binding stably to HLA molecules of the A1 type [5]: binding stably | binding stably to HLA molecules of the B18 type [1]: binding stably

ISEYRHYCY (Human Papillomavirus)
binding stably to HLA molecules of the A1 type [5]: binding stably | binding stably to HLA molecules of the B18 type [1]: binding stably

RVRAMAIY (listed as Homo sapiens)
binding stably to HLA molecules of the B62 type [6]: binding stably

NLLGRNSF (listed as Homo sapiens)
binding stably to HLA molecules of the B62 type [6]: binding stably

TAKSVTCTY (listed as Homo sapiens)
binding stably to HLA molecules of the B62 type [6]: binding stably

LQPETTDLY (Human Papillomavirus)
binding stably to HLA molecules of the B62 type [6]: binding stably
